Test results taken from US20230331792A1, “NEW MULTI-FUNCTIONAL OLIGOPEPTIDES” (ENLITISA (SHANGHAI) PHARMACEUTICAL CO., LTD., priority 2019, published 2023).
Square brackets hold non-standard residues; d marks the D form. Ends that are not written are not given here. Dopa = N[C@@H](Cc1ccc(O)c(O)c1)C(=O)O; Hyp = O=C(O)[C@@H]1C[C@@H](O)CN1

Tests used:
[1] = system: SD rats; assay: Experimental gastric ulcer model (anhydrous alcohol); format: in vivo
Method: SPF grade SD rats were used in this experiment, with 10 rats in each group. According to an evaluation method of health food for gastric ulcer issued by Chinese State Food and Drug Administration, the protective effect of Compound B on acute gastric ulcers induced by anhydrous alcohol was observed after continuous gavage for 30 days.
Omeprazole enteric-coated capsules (20 mg/capsule; Heilongjiang Norgas Pharmaceutical Co., Ltd., China) were opened and the powder was dissolved in water to make a 2 mg/mL solution. Compound B (see Example 7 above) powder was dissolved in water to make two solutions with concentrations of 0.25 mg/mL and 0.75 mg/mL. Administration volumes were […].
All drugs were administrated as shown in Table 13 by oral gavage for 30 consecutive days, once per day. The rats had free access to water. On the 30th day, rats were fasted for 24 hours after the last drug administration. On the 31st day, 1.0 mL/rat of absolute ethanol was given by gavage to each rat in all of the experimental groups except the control group.
1 hour later, all of the rats were sacrificed and dissected to expose the intact stomach, followed by ligation of the pylorus. 10% formaldehyde solution was administered into the stomach by perfusion and fixed for 20 minutes. The stomach was dissociated after fixation and cut open along the greater curvature. The stomach contents were washed off the lining with saline to reveal the gastric mucosa.
The length and width of gastric mucosal bleeding were measured with a Vernier calliper under a stereo microscope or by the naked eye.

[2] = system: patient; assay: Radiation stomatitis, patient case; format: in vivo, human; conditions: 0.5 mg/mL solution as mouthwash
Method: A patient was diagnosed with oral cancer and underwent radiation therapy.
After 3 weeks, oral mucositis developed with ulcers on the mucous membrane lining the mouth, throat and esophagus. It was very painful and the patient was not able to eat.
The patient then used Compound B solution (0.5 mg/mL; prepared as described in Example 38 above) as a mouthwash, as frequently as needed.

Substance: {[(Ala-Lys-Pro-Ser-Tyr-Hyp-Hyp-Thr-DOPA-Lys)2-Lys]2-Lys}2-Lys (AKPSY[Hyp][Hyp]T[Dopa]KKKK; also: branched lysine dendrimer {[(peptide)2-Lys]2-Lys}2-Lys) [Compound B]
- Damage score ([1]; 0.25 mg/mL, 0.5 mg/kg oral gavage once per day for 30 days): 24
- Damage score ([1]; 0.75 mg/mL, 1.5 mg/kg oral gavage once per day for 30 days): 18
- effect on gastric bleeding induced by alcohol ([1]; 0.5 and 1.5 mg/kg): may reduce gastric bleeding induced by alcohol
- course of stomatitis during continued therapy [2]: stomatitis did not worsen
- duration of pain relief [2]: one or two hours
- pain of oral mucositis ([2]; almost immediately after application): pain was very much reduced
